For data set [1], the target named is T1, human chemokine receptor CCR-3 (Homo sapiens, UniProt P51677).
T1 construct: expressed in transfected cells; host or cells: K562 cell line (membranes)
T1 sequence (P51677 1-355): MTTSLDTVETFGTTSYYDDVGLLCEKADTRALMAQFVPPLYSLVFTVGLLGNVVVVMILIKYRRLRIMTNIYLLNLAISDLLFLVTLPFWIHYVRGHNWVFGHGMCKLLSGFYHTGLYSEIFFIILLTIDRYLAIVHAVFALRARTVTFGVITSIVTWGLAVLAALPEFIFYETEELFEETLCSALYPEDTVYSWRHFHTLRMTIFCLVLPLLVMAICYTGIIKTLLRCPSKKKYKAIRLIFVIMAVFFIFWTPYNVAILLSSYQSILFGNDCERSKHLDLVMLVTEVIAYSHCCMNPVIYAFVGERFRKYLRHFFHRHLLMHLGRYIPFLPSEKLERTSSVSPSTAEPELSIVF
Kind of data set: CCR-3 receptor binding assay (SPA) with 125Jodine-eotaxin-1. As to conditions: membranes of hCCR-3 transfected K562 cells, radioligand 125J rhEotaxin, 2 hours incubation; read-out: Binding constants Ki (Eotaxin at CCR-3-Rezeptor). As to the method: The CCR-3 receptor binding test is based on a K562 cell line (leukemia myelogenic blast cells) transfected with the human chemokine receptor CCR-3 (hCCR-3-Cl). The cell membranes were prepared by disrupting the hCCR-3 transfected K562 cells by nitrogen […] and centrifugation at 40000 g, 4° C. for 1 h. The membranes were re-suspended in the SPA incubation buffer without bovine serum albumin for storage in aliquots at −80° C.
The CCR-3 receptor binding assay with the radioligand ^125Jodine-eotaxin-1 was performed in a Scintillation Proximity Assay (SPA) design. Cell membranes of hCCR-3 Cl cells were diluted in suitable concentrations (0.5–5 ug protein/well) in 96 well microtiter plates (1450–401, Wallac).
The test incubation mixture comprising 60 μl of the membrane suspension, 80 μl of the Wheat Germ Agglutinin coated PVT beads (organic scintillator, Amersham Pharmacia biotech) in a concentration of 0,4 mg and 40 μl of radiolabelled ^125J rhEotaxin (Amersham, IM290) were incubated with 20 μl of the test compound (dissolved in DMSO dilutions) for 2 hours. […] Bound radioactivity was determined by scintillation counter (Micro Beta “Trilux”, Wallac).
Determination of affinity of test compounds (dissociation constant Ki) was calculated by iterative fitting of experimental data using the law of mass action based program “easy sys” (Schittkowski, Num Math 68, 129–142 (1994)).

Structures are written as SMILES. pKi: −log10 of the molar value. Where a name gives a salt, the structure may show the parent alone.

Turning to `Fc1ccc(SCCCN2CCC(n3c(C(F)(F)C(F)(F)F)nc4cc(F)ccc43)CC2)cc1` (as salt: hydrochloride) [Example 6, 2-Pentafluoroethyl-5-fluoro-1-{1-[3-(4-fluoro-phenylsulfanyl)-propyl]-piperidin-4-yl}-1H-benzoimidazole], the melting point is 208 to 209 °C. Turning to `Fc1ccc(SCCCN2CCC(n3c(CC(F)(F)F)nc4cc(F)ccc43)CC2)cc1` (as salt: hydrochloride) [Example 10, 2-(2,2,2-Trifluoroethyl)-5-fluoro-1-{1-[3-(4-fluoro-phenylsulfanyl)-propyl]-piperidin-4-yl}-1H-benzoimidazole], the melting point lay within 158 to 160 °C.

As to `Fc1ccc(SCCCN2CCC(n3c(CC(F)(F)F)nc4cc(F)ccc43)CC2)cc1` [Example 10, 2-(2,2,2-Trifluoroethyl)-5-fluoro-1-{1-[3-(4-fluoro-phenylsulfanyl)-propyl]-piperidin-4-yl}-1H-benzoimidazole], in data set [1], the pKi is 7.72. As for `Fc1ccc(SCCCN2CCC(n3c(C(F)(F)C(F)(F)F)nc4cc(F)ccc43)CC2)cc1` [Example 6, 2-Pentafluoroethyl-5-fluoro-1-{1-[3-(4-fluoro-phenylsulfanyl)-propyl]-piperidin-4-yl}-1H-benzoimidazole], the negative-log Ki (pKi) in data set [1] is 6.96.
